The values below are quoted from earlier work in patent publication US20090117146A1 (priority 2005, published 2009).

This data set relates to adenyl cyclase. The settings on record: follicles of scalp hair.

Turning to `C[C@]12CC[C@H]3[C@@H](CCC4=CC(=O)CC[C@@]43C)[C@@H]1CC[C@@H]2O` [testosterone], the “effect on adenyl cyclase activity” value is reported as “does not”.
Regarding `C[C@]12CCC(=O)C[C@@H]1CC[C@@H]1[C@@H]2CC[C@]2(C)[C@@H](O)CC[C@@H]12` [dihydrotestosterone], the “effect on adenyl cyclase activity” value is reported as “inhibits adenyl cyclase activity”.
